{
  "source": "patent US20220370406A1",
  "about": "“METHOD OF TREATING STIMULANT USE DISORDER USING A COMBINATION OF TOPIRAMATE AND PHENTERMINE” (University of Kentucky Research Foundation, priority 2019, published 2022)",
  "key": {"[1]": {"tested_on": "participants with cocaine use disorder", "experiment": "Medical safety session: cardiovascular measures after intranasal cocaine", "assay_type": "in vivo, human", "procedure": "Participants completed one, single-blind medical safety session to ensure they could tolerate intranasal cocaine. Intranasal cocaine doses (i.e., 0 [placebo], 10, 20, 40 and 80 mg) were administered in ascending order. Placebo (i.e., 0 mg) was administered at 0900 hours. The subjective-effect questionnaires and cardiovascular measures described below were completed 30 minutes before placebo administration (i.e., 0830 hours), immediately following and at 15-minute intervals for 45 minutes. Subsequent cocaine administrations were separated by 45 minutes."}, "[2]": {"tested_on": "participants with cocaine use disorder", "experiment": "Experimental sessions: cardiovascular measures after cocaine sampling dose during maintenance", "details": "cocaine 80 mg during topiramate (50 or 100 mg/day)+phentermine (0 mg/day) relative to cocaine 0 mg during 0+0 mg/day"}, "[3]": {"details": "Cocaine 10 mg, Topiramate (0 mg/day) group"}, "[4]": {"details": "Cocaine 10 mg, Topiramate (50 mg/day) group"}, "[5]": {"details": "Cocaine 10 mg, Topiramate (100 mg/day) group"}, "[6]": {"details": "Cocaine 20 mg, Topiramate (0 mg/day) group"}, "[7]": {"details": "Cocaine 20 mg, Topiramate (50 mg/day) group"}, "[8]": {"details": "Cocaine 20 mg, Topiramate (100 mg/day) group"}, "[9]": {"details": "Cocaine 40 mg, Topiramate (0 mg/day) group"}, "[10]": {"details": "Cocaine 40 mg, Topiramate (50 mg/day) group"}, "[11]": {"details": "Cocaine 40 mg, Topiramate (100 mg/day) group"}, "[12]": {"details": "Cocaine 80 mg, Topiramate (0 mg/day) group"}, "[13]": {"details": "Cocaine 80 mg, Topiramate (50 mg/day) group"}, "[14]": {"details": "Cocaine 80 mg, Topiramate (100 mg/day) group"}},
  "data": [
    {"compound": "COC(=O)[C@H]1[C@@H](OC(=O)c2ccccc2)C[C@@H]2CC[C@H]1N2C", "note": "[Cocaine, cocaine]", "values": [
      {"measurement": "Vitals Diastolic Pressure, mean peak effect", "setting": "[1]; [3]", "value": 77.2},
      {"measurement": "Vitals Heart Rate, mean peak effect", "setting": "[1]; [3]", "value": 70.9},
      {"measurement": "Vitals Systolic Pressure, mean peak effect", "setting": "[1]; [3]", "value": 121.1},
      {"measurement": "Vitals Diastolic Pressure, mean peak effect", "setting": "[1]; [4]", "value": 84.8},
      {"measurement": "Vitals Heart Rate, mean peak effect", "setting": "[1]; [4]", "value": 67.4},
      {"measurement": "Vitals Systolic Pressure, mean peak effect", "setting": "[1]; [4]", "value": 123.9},
      {"measurement": "Vitals Diastolic Pressure, mean peak effect", "setting": "[1]; [5]", "value": 82.6},
      {"measurement": "Vitals Heart Rate, mean peak effect", "setting": "[1]; [5]", "value": 66.7},
      {"measurement": "Vitals Systolic Pressure, mean peak effect", "setting": "[1]; [5]", "value": 125.1},
      {"measurement": "Vitals Diastolic Pressure, mean peak effect", "setting": "[1]; [6]", "value": 81.5},
      {"measurement": "Vitals Heart Rate, mean peak effect", "setting": "[1]; [6]", "value": 77.9},
      {"measurement": "Vitals Systolic Pressure, mean peak effect", "setting": "[1]; [6]", "value": 125.3},
      {"measurement": "Vitals Diastolic Pressure, mean peak effect", "setting": "[1]; [7]", "value": 84.1},
      {"measurement": "Vitals Heart Rate, mean peak effect", "setting": "[1]; [7]", "value": 66.6},
      {"measurement": "Vitals Systolic Pressure, mean peak effect", "setting": "[1]; [7]", "value": 131.8},
      {"measurement": "Vitals Diastolic Pressure, mean peak effect", "setting": "[1]; [8]", "value": 82.3},
      {"measurement": "Vitals Heart Rate, mean peak effect", "setting": "[1]; [8]", "value": 64.6},
      {"measurement": "Vitals Systolic Pressure, mean peak effect", "setting": "[1]; [8]", "value": 128.3},
      {"measurement": "Vitals Diastolic Pressure, mean peak effect", "setting": "[1]; [9]", "value": 81.6},
      {"measurement": "Vitals Heart Rate, mean peak effect", "setting": "[1]; [9]", "value": 74.8},
      {"measurement": "Vitals Systolic Pressure, mean peak effect", "setting": "[1]; [9]", "value": 124.9},
      {"measurement": "Vitals Diastolic Pressure, mean peak effect", "setting": "[1]; [10]", "value": 82.4},
      {"measurement": "Vitals Heart Rate, mean peak effect", "setting": "[1]; [10]", "value": 70.8},
      {"measurement": "Vitals Systolic Pressure, mean peak effect", "setting": "[1]; [10]", "value": 129.9},
      {"measurement": "Vitals Diastolic Pressure, mean peak effect", "setting": "[1]; [11]", "value": 86.5},
      {"measurement": "Vitals Heart Rate, mean peak effect", "setting": "[1]; [11]", "value": 67.8},
      {"measurement": "Vitals Systolic Pressure, mean peak effect", "setting": "[1]; [11]", "value": 131.7},
      {"measurement": "Vitals Diastolic Pressure, mean peak effect", "setting": "[1]; [12]", "value": 85.9},
      {"measurement": "Vitals Heart Rate, mean peak effect", "setting": "[1]; [12]", "value": 85.8},
      {"measurement": "Vitals Systolic Pressure, mean peak effect", "setting": "[1]; [12]", "value": 130.5},
      {"measurement": "Vitals Diastolic Pressure, mean peak effect", "setting": "[1]; [13]", "value": 84.8},
      {"measurement": "Vitals Heart Rate, mean peak effect", "setting": "[1]; [13]", "value": 78.0},
      {"measurement": "Vitals Systolic Pressure, mean peak effect", "setting": "[1]; [13]", "value": 133.8},
      {"measurement": "Vitals Diastolic Pressure, mean peak effect", "setting": "[1]; [14]", "value": 88.3},
      {"measurement": "Vitals Heart Rate, mean peak effect", "setting": "[1]; [14]", "value": 77.6},
      {"measurement": "Vitals Systolic Pressure, mean peak effect", "setting": "[1]; [14]", "value": 137.4},
      {"measurement": "heart rate or blood pressure", "setting": "[1]; cocaine 20, 40 or 80 mg above placebo levels in at least one of the topiramate groups, medical safety session", "value": "significantly increased"},
      {"measurement": "heart rate", "setting": "[2]", "value": "significantly increased"}
    ]}
  ]
}
